{"source": "patent US20080031957A1", "about": "“Pulmonary delivery of 1alpha,25-dihydroxyvitamin D3 and co-administration of parathyroid hormone or calcitonin” (priority 2006, published 2008)", "key": {"[1]": {"assay": "Tissue distribution of 1α,25-dihydroxyvitamin D3 after intratracheal (pulmonary) delivery", "assay_type": "in vivo, Sprague Dawley rats", "excerpt": "Sprague Dawley and Brown Norway male rats aged 6-7 weeks were obtained from Harlan Sprague-Dawley (Madison, Wis.) and housed in shoebox cages. Animals were provided a purified rodent diet prepared in-house containing 0.47% calcium and 0.3% phosphorus, and water ad libitum. The diet was supplemented with 1.6 IU vitamin D3/g diet. […] Formulation A was an aqueous solution containing 30% propylene glycol and 5% ethanol at pH 7.0. Formulation B was also an aqueous solution further containing 0.4% TWEEN polysorbate 20 [1 mL of solution contains: 4 mg Tween Polysorbate 20, 1.5 mg sodium chloride, 10 mg sodium ascorbate, 7.6 mg sodium phosphate (dibasic), 1.8 mg sodium phosphate (monodibasic) and 1.1 mg disodium […]], pH 7.0. Intratracheal delivery of 1α,25-dihydroxyvitamin D3. 5 μCi of 1α,25-dihydroxyvitamin D3 was delivered intratracheally to anesthetized (isoflurane) Sprague Dawley rats by using the MicroSprayerTM Model 1C following the manufacturer's protocol (PennCentury, Philadelphia, Pa). The device included a stainless steel tube measuring 0.64 mm in diameter attached to a high-pressure syringe (Model FMJ-250, PennCentury). An atomizer at the very tip of the tube generated the aerosol plume. The MicroSprayerTM was inserted deep into the trachea allowing delivery of aerosolized compounds into the lungs. 1α,25-dihydroxyvitamin D3 was administered in either 100 μL (Formulation A and Formulation B) or 200 μL (Formulation A) dose volumes. As a quench control, a group of animals were dosed with either Formulation A or Formulation B. Tissue analysis. Using a duration of 4 hours and a duration of 10 minutes after administering the dose, the animals were anesthetized with isoflurane and blood was collected from the heart. The trachea, lungs and stomach were removed, dehydrated in alcohol and pulverized. Samples weighing 20-100 mg were placed in 1 mL Solvable (Packard BioScience B. V., The Netherlands) and incubated at 60° C. overnight. Next, 10 mL of Optima Gold (Perkin Elmer, Boston, Mass.) was added to the samples, and radioactivity was measured using a liquid scintillation analyzer (TRI-CARB 2100 TR, Packard). To determine the presence of 1α,25-dihydroxyvitamin D3 in the blood, 200-300 μL of serum in 10 mL Optima Gold was used for scintillation counting."}, "[2]": {"tested_on": "serum calcium levels", "assay": "Effect of aerosolized 1α,25-dihydroxyvitamin D3 on serum calcium levels", "assay_type": "in vivo, Brown Norway rats", "conditions": "Formulation A, intratracheal 200 μL doses on Day 0 and Day 2, blood 24 h after last dose", "excerpt": "Sprague Dawley and Brown Norway male rats aged 6-7 weeks were obtained from Harlan Sprague-Dawley (Madison, Wis.) and housed in shoebox cages. Animals were provided a purified rodent diet prepared in-house containing 0.47% calcium and 0.3% phosphorus, and water ad libitum. The diet was supplemented with 1.6 IU vitamin D3/g diet. […] Formulation A was an aqueous solution containing 30% propylene glycol and 5% ethanol at pH 7.0. Formulation B was also an aqueous solution further containing 0.4% TWEEN polysorbate 20 [1 mL of solution contains: 4 mg Tween Polysorbate 20, 1.5 mg sodium chloride, 10 mg sodium ascorbate, 7.6 mg sodium phosphate (dibasic), 1.8 mg sodium phosphate (monodibasic) and 1.1 mg disodium […]], pH 7.0. Effectiveness of Aerosol Delivery of Vitamin D to Pulmonary Tree. 1α,25-dihydroxyvitamin D3 effect on serum calcium levels in Brown Norway rats was determined. Delivery of 1α,25-dihydroxyvitamin D3 (i.e., in vivo activity) was measured to determine the effect of aerosolized 1α,25-dihydroxyvitamin D3 treatment on serum calcium levels. Formulation A containing 1α,25-dihydroxyvitamin D3 was intra-tracheally delivered in 200 μL doses on Day 0 (Day 0 was the first day of treatment) and Day 2. […] Calcium levels were determined by atomic absorption spectroscopy of the serum diluted 0.1% lanthum chloride using a Perkin Elmer Model 3110."}, "[3]": {"conditions": "Formulation A, 100 μL dose, after 10 minutes"}, "[4]": {"conditions": "Formulation B, 100 μL dose, after 10 minutes"}}}
{"smiles": "C=C1/C(=C\\C=C2/CCC[C@]3(C)[C@@H]([C@H](C)CCCC(C)(C)O)CC[C@@H]23)C[C@@H](O)C[C@@H]1O", "note": "[1α,25-dihydroxyvitamin D3]", "values": [{"measurement": "detected 1α,25-dihydroxyvitamin D3 found in the serum", "setting": "[1]; [3]", "result": 53, "unit": "%"}, {"measurement": "detected 1α,25-dihydroxyvitamin D3 found in the stomach", "setting": "[1]; [3]", "result": "~1", "unit": "%"}, {"measurement": "detected 1α,25-dihydroxyvitamin D3 found in the trachea and lungs", "setting": "[1]; [3]", "result": 46, "unit": "%"}, {"measurement": "detected 1α,25-dihydroxyvitamin D3 found in the serum", "setting": "[1]; Formulation A, after 4 hours", "result": 60, "unit": "%"}, {"measurement": "detected 1α,25-dihydroxyvitamin D3 found in the stomach", "setting": "[1]; Formulation A, after 4 hours", "result": 36, "unit": "%"}, {"measurement": "detected 1α,25-dihydroxyvitamin D3 found in the trachea and lungs", "setting": "[1]; Formulation A, after 4 hours", "result": "Less than 5%"}, {"measurement": "detected 1α,25-dihydroxyvitamin D3 found in the serum", "setting": "[1]; [4]", "result": 51, "unit": "%"}, {"measurement": "detected 1α,25-dihydroxyvitamin D3 found in the stomach", "setting": "[1]; [4]", "result": "less than 4%"}, {"measurement": "detected 1α,25-dihydroxyvitamin D3 found in the trachea and lungs", "setting": "[1]; [4]", "result": 33, "unit": "%"}, {"measurement": "1α,25-dihydroxyvitamin D3 detected in serum (% of total)", "setting": "[1]; Formulation B, after 4 hours", "result": 56, "unit": "%"}, {"measurement": "1α,25-dihydroxyvitamin D3 detected in stomach (% of total)", "setting": "[1]; Formulation B, after 4 hours", "result": 35, "unit": "%"}, {"measurement": "increase of serum calcium levels", "setting": "[2]; 1 μg/kgBW", "result": 2.8, "unit": "mg/dL"}, {"measurement": "increase of serum calcium levels", "setting": "[2]; 10 μg/kgBW", "result": 4, "unit": "mg/dL"}]}
